In patent publication US10703764B2, “Benzopiperazine compositions as BET bromodomain inhibitors” (FORMA Therapeutics, Inc., priority 2013, dated 2020):

Legend:
BRD4 BD2 = target: T1, BRD4 BD2 (Homo sapiens, UniProt O60885); experiment: AlphaScreen binding assay, BRD4 Bromodomain 2
T1 construct: made in house
Procedure, shortened: (§1)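 Compound dilution series were mixed with His-tagged BRD4 bromodomain and biotinylated tetra-acetylated H4 (1-21) peptide at pH 7.3 (BD1 and peptide at 50 nM, BD2 and peptide at 100 nM). Donor and acceptor beads were then added, and plates were equilibrated at least 1 h before reading. IC50 values were fitted with a four-parameter logistic model.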

BRD4 BD1 = target: T2, BRD4 BD1 (Homo sapiens, UniProt O60885); experiment: AlphaScreen binding assay, BRD4 Bromodomain 1
T2 construct: made in house
Procedure, shortened: as §1

| Compound | IC50 (BRD4 BD2) [µM] | IC50 (BRD4 BD1) [µM] |
| --- | --- | --- |
| CC(=O)N1c2ccccc2N(C(=O)c2ccc(C(C)C)cn2)C[C@@H]1C [Example I-728] | > 0.5 | > 10 |
| CC(=O)N1c2ccccc2N(C(=O)c2ccc(C(C)C)nc2)C[C@@H]1C [Example I-729] | > 0.5 | > 10 |
| CC(=O)N1c2ccccc2N(C(=O)Cc2cccs2)C[C@@H]1C [Example I-731] | > 0.5 | > 10 |
| CC(=O)N1c2ccccc2N(C(=O)COc2ccc(Cl)cc2)C[C@@H]1C [Example I-732] | > 0.5 | > 10 |
| COc1ccc(OCC(=O)N2C[C@H](C)N(C(C)=O)c3ccccc32)cc1 [Example I-733] | > 0.5 | > 10 |
| CC(=O)N1c2ccccc2N(C(=O)COc2ccc3ccccc3c2)C[C@@H]1C [Example I-734] | > 0.5 | > 10 |
| CC(=O)N1c2ccccc2N(C(=O)COc2ccc(F)cc2)C[C@@H]1C [Example I-735] | > 0.5 | > 10 |
| CC(=O)N1c2ccccc2N(C(=O)COc2cccc3ccccc23)C[C@@H]1C [Example I-736] | > 0.5 | > 10 |
| COCC(=O)N1C[C@H](C)N(C(C)=O)c2ccccc21 [Example I-738] | > 0.5 | > 10 |
| CC(=O)N1c2ccccc2N(C(=O)Cc2csc3ccc(Cl)cc23)C[C@@H]1C [Example I-739] | > 0.5 | > 10 |
| CC(=O)N1c2ccccc2N(C(=O)c2ccc(Oc3ccccc3)cc2)C[C@@H]1C [Example I-742] | > 0.5 | > 10 |
| CC(=O)N1c2ccccc2N(C(=O)c2ccccc2Oc2ccccc2)C[C@@H]1C [Example I-744] | > 0.5 | > 10 |
| COc1cscc1C(=O)N1C[C@H](C)N(C(C)=O)c2ccccc21 [Example I-747] | > 0.5 | > 10 |
| CC(=O)N1c2ccccc2N(C(=O)c2cc(C)oc2C)C[C@@H]1C [Example I-749] | > 0.5 | > 10 |
| CC(=O)N1c2ccccc2N(C(=O)c2cc(C)c(C)o2)C[C@@H]1C [Example I-750] | > 0.5 | > 10 |
| CC(=O)N1c2ccccc2N(C(=O)c2cc(C)n(C)n2)C[C@@H]1C [Example I-755] | > 0.5 | > 10 |

Continued, values first:

| IC50 (BRD4 BD2) [µM] | IC50 (BRD4 BD1) [µM] | Compound |
| --- | --- | --- |
| > 0.5 | > 10 | CC(=O)N1c2ccccc2N(C(=O)c2cc3ccccc3[nH]2)CC1C (centres unmarked) [Example I-730] |
| > 0.5 | > 10 | CC(=O)N1c2ccccc2N(C(=O)[C@H]2COc3ccccc3O2)C[C@@H]1C [Example I-737] |
| > 0.5 | > 10 | CO[C@@H](C(=O)N1C[C@H](C)N(C(C)=O)c2ccccc21)c1ccccc1 [Example I-740] |
| > 0.5 | > 10 | CO[C@H](C(=O)N1C[C@H](C)N(C(C)=O)c2ccccc21)c1ccccc1 [Example I-741] |
| > 0.5 | > 10 | CC(=O)N1c2ccccc2N(C(=O)c2ccc(Cl)cc2)C[C@@H]1C [Example I-743] |
| > 0.5 | > 10 | CC(=O)N1c2ccccc2N(C(=O)c2cccs2)C[C@@H]1C [Example I-745] |
| > 0.5 | > 10 | CC(=O)N1c2ccccc2N(C(=O)c2cc3ccccc3s2)C[C@@H]1C [Example I-746] |
| > 0.5 | > 10 | CC(=O)N1c2ccccc2N(C(=O)c2cc3ccccc3n2C)C[C@@H]1C [Example I-748] |
| > 0.5 | > 10 | CC(=O)N1c2ccccc2N(C(=O)c2cc3ccccc3o2)C[C@@H]1C [Example I-751] |
| > 0.5 | > 10 | CC(=O)N1c2ccccc2N(C(=O)c2cnc3ccccc3c2)C[C@@H]1C [Example I-752] |
| > 0.5 | > 10 | COc1cc(C(=O)N2C[C@H](C)N(C(C)=O)c3ccccc32)nc2ccccc12 [Example I-753] |
| > 0.5 | > 10 | CC(=O)N1c2ccccc2N(C(=O)c2ccnc3ccccc23)C[C@@H]1C [Example I-754] |
